# From US9113629B2, “4-amino-6-(4-substituted-phenyl)-picolinates and 6-amino-2-(4-substituted-phenyl)-pyrimidine-4-carboxylates and their use as herbicides” (DOW AGROSCIENCES LLC, priority 2013, dated 2015)
# Like-named read-outs stand apart in the source and are kept apart here.
# Key:
# [1] = test system: Key Grass and Sedge Weeds as well as Grass Crops; assay: Post-emergent Test II herbicidal activity (Table 6); assay type: in vivo; conditions: post-emergence, 336 h; for pest or weed control at 70 g/ha: 70 g ai/ha; for pest or weed control at 140 g/ha: 140 g ai/ha
# Summary of the method: (§1)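 Compounds, dissolved in 97:3 acetone/DMSO and diluted into an aqueous carrier containing crop oil concentrate and Triton X-155, are applied over the top of young plants at 187 L/ha. Injury is scored visually at 14 d, 0% meaning no effect and 100% complete kill.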
# [2] = test system: Key Broadleaf Weed and Crop Species; assay: Post-emergent Test II herbicidal activity (Table 5); assay type: in vivo; conditions: post-emergence, 336 h, 14 days after application; for pest or weed control at 70 g/ha: application rate 70 g ai/ha; for pest or weed control at 140 g/ha: application rate 140 g ai/ha
# Summary of the method: as §1
# [3] = CYPES: yellow nutsedge (Cyperus esculentus), read-out: Visual Growth Reduction (%) 14 Days After Application, CYPES
# [4] = DIGSA: crabgrass (Digitaria sanguinalis), read-out: Visual Growth Reduction (%) 14 Days After Application, DIGSA
# [5] = ECHCG: barnyardgrass (Echinochloa crus-galli), read-out: Visual Growth Reduction (%) 14 Days After Application, ECHCG
# [6] = ORYSA: rice (Oryza sativa), crop, read-out: Visual Growth Reduction (%) 14 Days After Application, ORYSA
# [7] = SETFA: giant foxtail (Setaria faberi), read-out: Visual Growth Reduction (%) 14 Days After Application, SETFA
# [8] = SORVU: grain sorghum (Sorghum vulgare), read-out: Visual Growth Reduction (%) 14 Days After Application, SORVU
# [9] = TRZSS (wheat, Triticum aestivum), crop, read-out: Visual Growth Reduction (%) 14 Days After Application, TRZSS
# [10] = ZEAMX: maize, corn (Zea mays), crop, read-out: Visual Growth Reduction (%) 14 Days After Application, ZEAMX
# [11] = ABUTH: velvetleaf (Abutilon theophrasti), read-out: Visual Growth Reduction (%) 14 Days After Application, ABUTH
# [12] = AMARE: redroot pigweed (Amaranthus retroflexus), read-out: Visual Growth Reduction (%) 14 Days After Application, AMARE
# [13] = BRSNN: oilseed-rape, canola (Brassica napus), read-out: Visual Growth Reduction (%) 14 Days After Application, BRSNN
# [14] = CHEAL: lambsquarters (Chenopodium album), read-out: Visual Growth Reduction (%) 14 Days After Application, CHEAL
# [15] = EPHHL: wild poinsettia (Euphorbia heterophylla), read-out: Visual Growth Reduction (%) 14 Days After Application, EPHHL
# [16] = HELAN: sunflower (Helianthus annuus), read-out: Visual Growth Reduction (%) 14 Days After Application, HELAN
# [17] = VIOTR: wild pansy (Viola tricolor), read-out: Visual Growth Reduction (%) 14 Days After Application, VIOTR
SMILES,"pest or weed control at 70 g/ha [1, 3]","pest or weed control at 140 g/ha [1, 3]","pest or weed control at 70 g/ha [1, 4]","pest or weed control at 140 g/ha [1, 4]","pest or weed control at 70 g/ha [1, 5]","pest or weed control at 140 g/ha [1, 5]","pest or weed control at 70 g/ha [1, 6]","pest or weed control at 140 g/ha [1, 6]","pest or weed control at 70 g/ha [1, 7]","pest or weed control at 140 g/ha [1, 7]","pest or weed control at 70 g/ha [1, 8]","pest or weed control at 140 g/ha [1, 8]","pest or weed control at 70 g/ha [1, 9]","pest or weed control at 140 g/ha [1, 9]","pest or weed control at 70 g/ha [1, 10]","pest or weed control at 140 g/ha [1, 10]","pest or weed control at 70 g/ha [2, 11]","pest or weed control at 140 g/ha [2, 11]","pest or weed control at 70 g/ha [2, 12]","pest or weed control at 140 g/ha [2, 12]",also measured
"Nc1c(F)c(-c2ccc(I)c(F)c2F)nc(C(=O)O)c1Cl [Compound 141, 4-amino-3-chloro-6-(2,3-difluoro-4-iodophenyl)-5-fluoropicolinic acid]",0 to 29%,95 to 100%,75 to 84%,75 to 84%,85 to 94%,95 to 100%,0 to 29%,0 to 29%,75 to 84%,95 to 100%,85 to 94%,85 to 94%,60 to 74%,60 to 74%,95 to 100%,95 to 100%,85 to 94%,85 to 94%,95 to 100%,95 to 100%,"pest or weed control at 70 g/ha [2, 13]: 95 to 100%; pest or weed control at 140 g/ha [2, 13]: 95 to 100%; pest or weed control at 70 g/ha [2, 14]: 85 to 94%; pest or weed control at 140 g/ha [2, 14]: 85 to 94%; pest or weed control at 70 g/ha [2, 15]: 95 to 100%; pest or weed control at 140 g/ha [2, 15]: 95 to 100%; pest or weed control at 70 g/ha [2, 16]: 95 to 100%; pest or weed control at 140 g/ha [2, 16]: 95 to 100%; pest or weed control at 70 g/ha [2, 17]: 95 to 100%; pest or weed control at 140 g/ha [2, 17]: 95 to 100%; melting point: 155 to 157 °C"
C#Cc1ccc(-c2nc(N)c(OC)c(C(=O)OC)n2)c(F)c1 [Compound 59],0 to 29%,0 to 29%,0 to 29%,0 to 29%,0 to 29%,0 to 29%,0 to 29%,0 to 29%,0 to 29%,0 to 29%,0 to 29%,0 to 29%,0 to 29%,0 to 29%,0 to 29%,0 to 29%,0 to 29%,0 to 29%,0 to 29%,0 to 29%,"pest or weed control at 70 g/ha [2, 13]: 30 to 44%; pest or weed control at 140 g/ha [2, 13]: 45 to 59%; pest or weed control at 70 g/ha [2, 14]: 0 to 29%; pest or weed control at 140 g/ha [2, 14]: 60 to 74%; pest or weed control at 70 g/ha [2, 15]: 0 to 29%; pest or weed control at 140 g/ha [2, 15]: 0 to 29%; pest or weed control at 70 g/ha [2, 16]: 60 to 74%; pest or weed control at 140 g/ha [2, 16]: 60 to 74%; pest or weed control at 70 g/ha [2, 17]: 0 to 29%; pest or weed control at 140 g/ha [2, 17]: 0 to 29%; melting point: 203 to 205 °C"
